Source: patent US20140228540A1, “POLYPEPTIDES THAT BIND TISSUE INHIBITOR OF METALLOPROTEINASE TYPE THREE (TIMP-3), COMPOSITIONS AND METHODS” (Amgen Inc., priority 2009, published 2014)
Where two headings read alike, the source gives them in different places.

T1: MuTIMP-3 (Mus musculus, UniProt P39876)
T1 sequence (P39876 24-211): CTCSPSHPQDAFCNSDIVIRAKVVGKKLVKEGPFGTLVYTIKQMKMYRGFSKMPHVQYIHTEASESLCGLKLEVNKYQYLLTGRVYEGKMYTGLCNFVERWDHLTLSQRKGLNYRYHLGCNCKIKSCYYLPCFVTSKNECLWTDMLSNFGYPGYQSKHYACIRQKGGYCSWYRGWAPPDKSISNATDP

T2: HuTIMP-3 (Homo sapiens, UniProt P35625)
T2 sequence (P35625 24-211): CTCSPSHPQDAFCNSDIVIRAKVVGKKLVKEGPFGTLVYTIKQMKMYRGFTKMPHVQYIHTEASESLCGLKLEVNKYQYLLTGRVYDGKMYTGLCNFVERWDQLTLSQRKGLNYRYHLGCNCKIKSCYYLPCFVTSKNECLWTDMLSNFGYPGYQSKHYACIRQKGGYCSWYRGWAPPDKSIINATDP


Legend:
TIMP-3 = experiment: Binding ELISA of LRP-1 peptides to TIMP-3 (Table 2; format and species not specified); design: species or system human or mouse
[1] = system: biotinylated recombinant human or mouse TIMP-3; experiment: TIMP-3 AlphaScreen binding assay
Protocol: Peptides were also evaluated by AlphaScreen® (Amplified Luminescent Proximity Homogeneous Assay; PerkinElmer, Waltham, Mass.) a very sensitive non-radioactive homogeneous assay technology that allows the screening of a large range of biological interactions and activities, substantially according to the manufacturer's instructions. Briefly, all dilutions are made in AlphaScreen® Buffer: [40 mM HEPES pH 7.5, 100 mM NaCl, 1 mM CaCl2, 0.1% BSA, 0.05% Tween-20]. The LRP-1 peptides are titrated in a separate polypropylene 96-well plate (Falcon) starting at 4 microM concentration and then diluted serially 3-fold for 12-points, with the last point buffer only. First 2 microL/well of protein titration curve is added to white, small volume, 384-well assay plate (Greiner Bio-One, Stonehouse, UK) in duplicate. Next, 2 microL of biotinylated (AFS, in-house conjmicroGation) recombinant human or mouse TIMP-3, is added at 12 nM (or 3 nM final assay concentration) to the assay plate. Lastly, in subdued light 4 microL of a mixture of streptavidin donor beads, anti-mouse IgG acceptor beads (PerkinElmer) both diluted to 20 microG/mL (10 microG/mL final assay concentration) and 2 nM (1 nM final concentration) rat-anti-HA (clone3F10)-HRP (Roche Diagnostics) is added to the plates. Plates containing 8 microL final assay volume are covered with TopSeal A (to prevent evaporation), spun quickly at 1000 rpm, and incubated overnight (covered with foil to prevent light exposure) before reading on Fusion plate reader (PerkinElmer) using AlphaScreen® parameters (excitation 680 nm and emission 520-620 nm). Data is analyzed using GraphPad Prism 4.01 software. Binding to TIMP-3 is reported as total signal (cps).

HTB-94 cells = experiment: Accumulation of TIMP-3 in the medium of cultured HTB-94 cells; type: cell-based; conditions: peptides 2 microM
Protocol: This example describes an assay to evaluate the accumulation of TIMP-3 in the medium of cultured cells. HTB-94™ cells (a chondrocytic cell line available from the American Type Culture Collection, Manassas, Va.) are plated to 24-well tissue culture plates at 1×10̂5 cells per well in 1 ml growth medium (RPM11640, 10% FBS, 1% PSG), and incubated at 37 C, 5% CO2 overnight. The cells are then washed once with PBS, and the wells are replenished with 250 microL serum-free medium (RPM11640, 1% PSG; designated SF in the tables below) to which is added the polypeptide being tested or a control (for example medium containing heparin, 1 mg/ml). Proteins to be tested are diluted to appropriate concentrations, for example as shown in the Tables below, and added to the cells. Cells are then incubated at 37 C, 5% CO2 for two additional days, day 2 conditioned medium (CM) samples are collected and clarified by centrifugation (i.e., for 5 minutes at 10K RPM) and the supernatant fluid is collected and stored at −20 C until assayed. Analysis is done on 100 microL CM samples, either by Western blot or by using a standard human TIMP-3 ELISA as per the manufacturer's protocol (R&D Systems Inc., Minneapolis, Minn.).

MuTIMP-3 = biological target: T1, MuTIMP-3; experiment: Directly coated TIMP-3 binding ELISA (mouse); conditions: mouse TIMP-3; for EC50: direct
HuTIMP-3 [2] = biological target: T2, HuTIMP-3; experiment: Indirect binding ELISA with TIMP-3 presented via anti-TIMP-3 neutralizing antibody; conditions: human TIMP-3
Protocol: After incubation, the plate contents are discarded and 250 microL/well of blocking buffer (1% BSA, TBS [pH 7.5], 1 mM CaCl2) is added to the plate which is incubated with shaking for 1 hour at room temperature. The plate is then washed three times with 200 microL/well with wash buffer 1 (TBS [pH 7.5], 1 mM CaCl2) followed by the addition of 100 microL of 20 nM recombinant human TIMP-3. The plate is incubated at room temperature for 1 hour. The LRP-1 peptides are titrated as described previously, and 100 microL/well of the diluted LRP-1 peptide titration is added to the TIMP-3 coated plate and allowed to bind for 1.5 hour at room temperature with shaking. After incubation, the plate is washed and the ELISA performed substantially as described previously for the direct binding ELISA.

HuTIMP-3 [3] = biological target: T2, HuTIMP-3; experiment: Directly coated TIMP-3 binding ELISA (human); conditions: human TIMP-3; for EC50: direct
[4] = system: cultured chondrocytic cells; conditions: cited from earlier work
[5] = Assay 1, read-out: Binding ELISA EC50 (nm) Assay 1
[6] = Assay 2, read-out: Binding ELISA EC50 (nm) Assay 2

AlphaScreen total signal (cps) Assay 1 [1] | EC50 (TIMP-3; [6]) | AlphaScreen total signal (cps) Assay 2 [1] | Molecule | TIMP-3 (ng/ml) in conditioned medium (HTB-94 cells; Table 6) | TIMP-3 (ng/ml) in conditioned medium (HTB-94 cells; Table 7) | other results
3,000 cps |  |  | LA18-20: LRP-1 peptide multimer, amino acids 2818- (end not printed) |  |  | EC50 (TIMP-3; [5]): ~300 nM
2,200 cps | > 5000 nM |  | LA23: LRP-1 peptide monomer, amino acids 3413-3452 | 0.87 ng/mL |  | 
2,200 cps |  | 2,000 cps | LA15: LRP-1 peptide monomer, amino acids 2696- (end not printed) | 1.29 ng/mL |  | EC50 (MuTIMP-3): > 1000 nM
2,200 cps |  |  | LA7: LRP-1 peptide monomer, amino acids 1015- (end not printed) | 0.90 ng/mL |  | EC50 (HuTIMP-3 [2]): > 1000 nM; EC50 (MuTIMP-3): > 1000 nM; EC50 (HuTIMP-3 [3]): > 1000 nM
6,000 cps |  | 4,000 cps | LA5-6: LRP-1 peptide multimer, amino acids 931-1014 |  | 2.38 ng/mL | EC50 (HuTIMP-3 [3]): > 1000 nM
2,200 cps | > 10000 nM |  | LA19: LRP-1 peptide monomer, amino acids 2858-2903 | 1.06 ng/mL |  | 
2,200 cps | > 5000 nM |  | LA17: LRP-1 peptide monomer, amino acids 2774-2817 | 1.06 ng/mL |  | 
2,200 cps |  | 2,000 cps | LA4: LRP-1 peptide monomer, amino acids 895-930 | 1.07 ng/mL |  | EC50 in TIMP-3 Binding ELISA, Indirect HuTIMP-3 (HuTIMP-3 [2]): no binding; EC50 in TIMP-3 Binding ELISA, Direct MuTIMP-3 (MuTIMP-3): no binding; EC50 in TIMP-3 Binding ELISA, Direct HuTIMP-3 (HuTIMP-3 [3]): no binding
2,200 cps | > 10000 nM |  | LA18: LRP-1 peptide monomer, amino acids 2818-2857 | 1.11 ng/mL |  | 
2,200 cps |  |  | LA28: LRP-1 peptide monomer, amino acids 3613-3653 |  | 0.99 ng/mL | EC50 (MuTIMP-3): > 1000 nM; EC50 (HuTIMP-3 [3]): > 1000 nM
2,200 cps |  |  | LA6: LRP-1 peptide monomer, amino acids 976-1014 | 1.07 ng/mL |  | 
110,000 cps |  | 100,000 cps | LA8-10: LRP-1 peptide multimer, amino acids 1062- (end not printed) |  | 3.91 ng/mL | EC50 (HuTIMP-3 [3]): > 1000 nM
5,000 cps |  | 2,000 cps | LA25: LRP-1 peptide monomer, amino acids 3494-3535 |  | 1.24 ng/mL | 
2,200 cps | > 10000 nM |  | LA20: LRP-1 peptide monomer, amino acids 2904-2943 (CNASSQFLCSSGRCVAEALLCNGQDDCGDSSDERGCHINE) | 0.96 ng/mL |  | 
290,000 cps |  | 130,000 cps | LA24-25: LRP-1 peptide multimer, amino acids 3453-3535 |  | 2.48 ng/mL | 
3,000 cps |  |  | LA21-23: LRP-1 peptide multimer, amino acids 3334- (end not printed) |  | 4.46 ng/mL | EC50 (TIMP-3; [5]): 243 nM
2,200 cps | 1080 nM | 2,000 cps | LA5: LRP-1 peptide monomer, amino acids 931-975 | 0.94 ng/mL |  | 
90,000 cps |  | 70,000 cps | LA15-17: LRP-1 peptide multimer, amino acids 2696- (end not printed) (protein) CPLNYFACPSGRCIPMSWTCDKEDDCEHGEDETHCNKFCSEAQFECQNHRCISKQWLCDGSDDCGDGSDEAAHCEGKTCGPSSFSCPGTHVCVPERWLCDGDKDCADGADESIAAGCLYNST |  | 4.70 ng/mL | 
 |  |  | RAP: receptor associated protein, a general inhibitor of LRP-1 (protein, UniProt P30533 35-357, looked up) Alpha-2-macroglobulin …: YSREKNQPKPSPKRESGEEFRMEKLNQLWEKAQRLHLPPVRLAELHADLKIQERDELAWKKLKLDGLDEDGEKEARLIRNLNVILAKYGLDGKKDARQVTSNSLSGTQEDGLDDPRLEKLWHKAKTSGKFSGEELDKLWREFLHHKEKVHEYNVLLETLSRTEEIHENVISPSDLSDIKGSVLHSRHTELKEKLRSINQGLDRLRRVSHQGYSTEAEFEEPRVIDLWDLAQSANLTDKELEAFREELKHFEAKIEKHNHYQKQLEIAHEKLRHAESVGDGERVSRSREKHALLEGRTKELGYTVKKHLQDLSGRISRARHNEL |  |  | levels of TIMP-3 in the medium of cultured chondrocytic cells [4]: increases
 |  | 100,000 cps | LA3-10: LRP-1 peptide multimer, not listed in Table 1 (protein) CQPGEFACANSRCIQERWKCDGDNDCLDNSDEAPALCHQHTCPSDRFKCENNRCIPNRWLCDGDNDCGNSEDESNATCSARTCPPNQFSCASGRCIPISWTCDLDDDCGDRSDESASCAYPTCFPLTQFTCNNGRCININWRCDNDNDCGDNSDEAGCSHSCSSTQFKCNSGRCIPEHWTCDGDNDCGDYSDETHANCTNQATRPPGGCHTDEFQCRLDGLCIPLRWRCDGDTDCMDSSDEKSCEGVTHVCDPSVKFGCKDSARCISKAWVCDGDNDCEDNSDEENCESLACRPPSHPCANNTSVCLPPDKLCDGNDDCGDGSDEGELCDQ |  |  | EC50 (TIMP-3; [5]): 45.5 nM; EC50 (TIMP-3; Assay 3, read-out: Binding ELISA EC50 (nm) Assay 3): 32.5 nM
